From paper PMC7391726, “Fatty acid mimetic PBI-4547 restores metabolic homeostasis via GPR84 in mice with non-alcoholic fatty liver disease” (Scientific Reports, 2020)

Columns and labels:
[1] = test system: CCl4 mouse; test: Carbon tetrachloride (CCl4)-induced liver fibrosis; type: in vivo
Source text: Since fibrosis contributes directly to the progression from NAFLD to NASH, we next evaluated the effect of PBI-4547 pro-fibrotic gene expression. […] Pro-inflammatory genes were not modulated by treatment with PBI-4547. […] As liver fibrosis was relatively mild in HFD-fed mice, we performed separate studies to evaluate the antifibrotic effect of PBI-4547, in rodent models of carbon tetrachloride (CCl4)- and bile duct ligation (BDL)-induced liver fibrosis.

[2] = target: T1, PPARα (Homo sapiens, UniProt Q07869); test: Cell-based GAL4 transactivation assay in HEK293 cells, PPARα LBD; settings: HEK293, 24 h; read-out: EC50, PPARα transcriptional activity
T1 construct: human PPARα (S167–Y468); expressed in transfected cells; host or cells: HEK293
T1 sequence (Q07869 167-468): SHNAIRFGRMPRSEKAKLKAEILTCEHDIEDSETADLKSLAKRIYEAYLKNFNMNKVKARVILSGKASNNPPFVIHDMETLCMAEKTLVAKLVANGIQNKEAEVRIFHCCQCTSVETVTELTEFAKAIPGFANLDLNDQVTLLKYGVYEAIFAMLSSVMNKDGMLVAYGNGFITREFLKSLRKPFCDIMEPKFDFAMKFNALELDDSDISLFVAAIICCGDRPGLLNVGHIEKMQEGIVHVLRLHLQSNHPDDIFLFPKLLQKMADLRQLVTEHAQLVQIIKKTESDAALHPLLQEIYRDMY
Source text: To determine the transcriptional activity of PBI-4547, a cell-based GAL4 transactivation assay in HEK293 cells transfected with either PPARα, PPARδ, or PPARγ LBD was used. […] However, PBI-4547 only partially activated PPARγ transcriptional activity, with a relative maximal efficacy of 38% of the control agonist rosiglitazone.
Generation of the Gαi2, Gαq, and GPR40/β-arrestin-2 BRET biosensors have been described previously. A plasmid encoding the human GPR120-L (long isoform) cDNA was obtained from R&D Systems. GPR120-S (short isoform) was generated by replacing the BglII-BsgI fragment from GPR120-L by a gBlock gene fragment (Integrated DNA Technologies, Coralville, IA) lacking the DNA sequence corresponding to the extra 16 amino acids found in the third intracellular loop of the long form. The GPR120-GFP10 construct was generated by inserting PCR-amplified GPR120-S (without its stop codon) in place of GPR40 in the GPR40-GFP10 plasmid. […]
HEK293 cells were co-transfected with pGL4.35[luc2P/9XGAL4UAS/Hygro] and GAL4-PPAR-Rluc plasmids, and after 24 h of incubation were treated with compounds for 24 h. Luciferase activity was determined with the Dual Glo luciferase assay (Promega). Firefly luminescence was normalized to the constitutively expressed Renilla luminescence, and results expressed as fold induction of vehicle control.

[3] = test system: HFD-fed Gpr84−/− mice; test: High-fat diet (HFD) mouse model, Gpr84−/− mice; type: in vivo
Method: Based on PBI-4547’s pharmacological profile and binding activities, we next used Gpr84^−/− mice fed a HFD to investigate the role of GPR84 in mediating the protective effects of PBI-4547 on glucose and FA metabolism.
WT or Gpr84^−/− mice, as previously described, (aged 10–14 weeks at the beginning of the experiment) were either fed a standard diet (STD) or a high-fat diet (HFD) (Envigo #TD.06414) for 14 weeks. At this point, mice were administered either vehicle (water) or PBI-4547 (10 mg/kg) on a daily basis for 6 (WT study) or 8 (WT vs KO study) weeks by gastric gavage, and were sacrificed thereafter. Liver and WAT tissues were fixed in 10% formalin for histological analyses or flash frozen in liquid nitrogen for RT-PCR analyses. All animal studies were reviewed and approved by the animal care and use committee of the Institut National de la Recherche Scientifique – Armand-Frappier (Laval, QC, Canada) and the University of Ottawa’s Animal Care and Veterinary Services (Ottawa, ON, Canada). Protocols were approved and undertaken according to the Canadian Council on Animal Care guidelines.
Oral glucose tolerance tests (OGTT) were completed 6 weeks after beginning of the treatments. Briefly, mice were fasted for 4–6 h, given a bolus of glucose at […] BW orally, and blood glucose values measured at 0, 15, 30, 60, 120 min. In parallel, a blood sample was obtained at 0, 15, 60 and 120 min for insulin quantification by ELISA (EMD Millipore).
After fixation in formalin, iWAT (inguinal), eWAT (epididymal) and liver sections were embedded in paraffin. Thin section of […] were stained with Hematoxylin and Eosin or Sirius red for analyses. WAT collagen deposition and liver characteristics of NAFLD were quantified histologically by a pathologist (R.C.) in a double-blinded manner. Liver histology was performed on H&E stained slides. WAT collagen deposition was scored using Picro Sirius-Red stained slides. Immunofluorescence-detection of α-SMA in liver sections was performed. Briefly, samples were deparaffinized in a series of xylenes, rehydrated in graded alcohols followed by an antigen-unmasking step by microwaving in Tris-buffer (pH 8.2). Sections were blocked with 10% donkey serum (Vector labs), 1% bovine serum albumin (Sigma) in PBS + 1%Tween for 1 h at room temperature. Slides were incubated overnight at 4 °C with an anti-mouse smooth muscle α-Actin antibody (1:300; Santa Cruz, clone #1A4). Secondary detection was performed using a donkey anti-mouse Alexa Fluor 594 (1:500; Molecular Probes), incubated for 1 h at room temperature. Slides were dehydrated and mounted with fluorescent antifade media containing DAPI (Vector labs). Images were taken at 100X and 200X magnification and representative images are shown.
RNA was extracted and purified as previously described. Real-time quantitative PCR was performed on a CFX96 Touch Real-Time PCR Detection System (Bio-Rad) using TaqMan gene expression assays (Fisher Scientific). qPCR data were analyzed using the 2-^ΔΔCt method, using Gapdh and Hprt as endogenous control. RT-qPCR data were reported as Geometric means ± SEM.

[4] = WT vs KO study, HFD-fed Gpr84−/−

CCCCCc1cc(CCCCC)cc(CC(=O)[O-])c1.[Na+] [PBI-4547, 2-[3,5-dipentylphenyl]acetate sodium salt]
liver collagen deposition [1]: significantly decreased
EC50 [2]: 42 µM
immunodetectable α-SMA in liver ([3]; HFD-fed GPR84−/− mice): further decreased
impact on hepatic steatosis ([3]; HFD-fed Gpr84−/− (KO) mice): protective effect was lost
expression of hepatic genes previously found regulated by PBI-4547 in WT mice ([3]; HFD-fed Gpr84−/− mice, qRT-PCR): no longer modulated
WAT mean adipocyte diameters and area [3, 4]: remained unchanged
fasting blood glucose levels [3, 4]: only in WT mice
serum adiponectin [3, 4]: upregulated
serum cholesterol levels [3, 4]: remained unchanged
serum triglyceride levels [3, 4]: only in WT mice
OGTT ([3]; WT vs KO study, HFD-fed Gpr84−/−, after 6 weeks): only had a significant effect on OGTT in WT mice
modulatory effect on pro-inflammatory and pro-fibrotic markers in WAT ([3]; mice lacking the GPR84 receptor): absent
